Assay [1] has as its target T1, NK1 receptor (Homo sapiens, UniProt P25103).
T1 construct: antagonizes both NK1 (on UC11 cells); endogenous in cells; host or cells: UC11 cells
Nature of the assay: Antagonism of NK1 receptor mediated (SP-induced) phosphatidylinositol turnover in UC11 cells. It is filed as cell-based. The settings on record: for relative antagonism of NK1 and NK2 receptors (in words): PI turnover, UC11 (NK1) versus SKLKB82#3 (NK2) cells. The procedure:
(§1) Tachykinin-mediated inositol phosphate accumulation was measured in UC11 or SKLKB82#3 cells in the presence and absence of NK1 or NK2 receptor antagonists, respectively. Tissues were incubated in Krebs-Henseleit buffer at 37° C. with 95% O2 -5% CO2 gassing. Tissues were then incubated with fresh buffer containing 100 μCi of myo-[2-3H(N)] inositol at 37° C. for 60 min with gentle gassing. After washing twice in 5 ml room temperature buffer containing 10 mM LiCl, tissues were incubated for 30 min at room temperature with a buffer change at 15 min. Buffer was removed and Krebs-Henseleit buffer (containing 40 μg/ml bacitracin, 4 μg/ml each of leupeptin and chymostatin, 0.1% bovine serum albumin and 10 mM each of thiorphan and LiCl) added. After 15 min, SP was added to UC11 cells or NKA to SKLKB82#3 cells at various concentrations to start the reaction. After incubation for 60 min at room temperature the reaction was terminated by addition of 930 μl chloroform: methanol (1:2 by volume) to each tube, followed by 310 μl chloroform and 310 μl doubly distilled water. Samples were vortexed, centrifuged, and 0.9 ml of the aqueous (top) phase removed and added to 2 ml ddH2 O. The mixture was vortexed and loaded onto a 50% Bio-Rad AG 1-X8 (formate form, 100-200 mesh) exchange column (Bio-Rad Laboratories, Hercules, Calif.). The columns were washed, in order, with: 1) 10 ml doubly distilled water, 2) 5 ml of 5 mM disodium tetraborate/60 mM sodium formate, and 3) 5 ml of 1M ammonium formate/0.1M formic acid. The third elution was collected and 1 ml counted in 7 ml scintillation fluid. A 50 μl aliquot of the organic (bottom) phase was removed, dried in a scintillation vial and counted in 7 ml scintillation fluid.
(§2) The ratio of DPM in the aqueous phase aliquot (total inositol phosphates) to the DPM in the 50 μl organic phase aliquot (total [^3 H]inositol incorporated) was calculated for each sample. Data are expressed as a percent of agonist-induced accumulation of [^3 H]-inositol phosphates over basal levels. The ratios in the presence of test compound and/or standards were compared to the ratios for control samples (i.e. no stimulating agonist). Dose-response graphs were constructed and the abilities of the test compounds to inhibit tachykinin-induced phosphatidyinositol turnover determined with the aid of a computer program. […] Data is expressed as percent stimulation of total inositol phosphate accumulation over basal levels and normalized to the maximum response produced by SP. […] Schild analysis is performed using dose response curves (such as those presented in FIGS. 1a and 1b) to obtain a value indicative of the strength of a competitive antagonist and is expressed as the pA2, which is the negative logarithm of the molar concentration of antagonist which reduces the effect of a dose of agonist to one-half of that expected at the dose of agonist.

The target of assay [2] is T2, NK2 receptor (Bos taurus, UniProt P05363).
T2 construct: expressed in transfected cells; host or cells: SKLKB82#3 cells
T2 sequence (P05363 1-384): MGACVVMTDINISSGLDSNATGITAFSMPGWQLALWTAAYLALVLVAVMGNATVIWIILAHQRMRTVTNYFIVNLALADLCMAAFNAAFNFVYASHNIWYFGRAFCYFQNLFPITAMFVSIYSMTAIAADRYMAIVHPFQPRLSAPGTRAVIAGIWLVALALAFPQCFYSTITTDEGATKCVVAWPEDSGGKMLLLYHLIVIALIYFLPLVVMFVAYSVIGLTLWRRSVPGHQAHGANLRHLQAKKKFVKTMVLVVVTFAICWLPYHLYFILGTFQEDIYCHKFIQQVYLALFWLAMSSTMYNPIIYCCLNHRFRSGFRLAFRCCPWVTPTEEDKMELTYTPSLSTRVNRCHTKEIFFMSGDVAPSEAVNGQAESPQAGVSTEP
Nature of the assay: Antagonism of NK2 receptor mediated (NKA-induced) phosphatidylinositol turnover in SKLKB82#3 cells. It is filed as cell-based. The settings on record: SKLKB82#3 cells, NKA; Schild slope, mean (95% confidence limits). The procedure: as §1
as §2, with “The ratios in the presence of test compound and/or standards were compared to the ratios for control samples (i.e. no stimulating agonist).” left out

The target in assay [3] is T3, NK1 receptor (Cavia porcellus, UniProt P30547).
T3 construct: evaluated in guinea pig lungs; tissue Keystone Biologicals, Cleveland, OH; host or cells: guinea pig lung
T3 sequence (P30547 whole entry): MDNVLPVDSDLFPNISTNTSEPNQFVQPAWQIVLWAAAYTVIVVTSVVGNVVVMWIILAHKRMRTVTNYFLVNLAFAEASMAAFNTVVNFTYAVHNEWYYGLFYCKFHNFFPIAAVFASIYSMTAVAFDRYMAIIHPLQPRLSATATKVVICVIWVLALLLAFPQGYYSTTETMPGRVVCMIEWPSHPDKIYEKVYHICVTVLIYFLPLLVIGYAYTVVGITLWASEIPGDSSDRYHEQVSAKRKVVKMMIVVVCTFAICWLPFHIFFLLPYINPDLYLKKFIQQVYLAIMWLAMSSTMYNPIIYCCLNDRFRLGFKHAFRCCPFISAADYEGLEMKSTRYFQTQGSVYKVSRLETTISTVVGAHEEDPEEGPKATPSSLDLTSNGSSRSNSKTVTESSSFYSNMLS
Nature of the assay: Antagonism of SP-induced plasma protein extravasation in guinea pig trachea. The settings on record: guinea pig, iv; i.v. 2 min prior to SP; mean (95% confidence limits); at least 3 doses, at least 4 animals per dose; read-out: ED50 for inhibition of SP-induced plasma protein extravasation. It is filed as in vivo. How it is done: SP-induced protein leakage through postcapillary venules was assessed by measuring Evans Blue dye accumulation in guinea pig trachea. Animals were anesthetized with pentobarbital then injected with Evans Blue dye (20 mg/kg, i.v., prepared in 0.9% NaCl solution). One minute after dye administration, the antagonist was administered (i.v.) followed by SP (0.3 nmole/kg, i.v.) and, after 5 min, excess dye removed from the circulation by transcardiac perfusion with 50 ml 0.9% NaCl solution. The trachea and primary bronchi were removed, blotted dry and weighed. Dye quantitation was performed spectrophotometrically ([…]) after extracting tissues in formamide for 24 hr at 50° C.. Values were subtracted from background (dye only, no agonist). ED50 (dose of compound which inhibits SP-induced plasma protein extravasation by 50%) was calculated from linear regression analysis.

For the next assay, the system named is NK1 and NK2 receptors. Nature of the assay: Modulation of respiratory effects produced by capsaicin aerosol in conscious guinea pigs. It is filed as in vivo, guinea pig. The procedure: (§3) In vivo experiments were performed using male Duncan Hartley guinea pigs (250-350g). Changes in conscious breathing patterns were monitored in four animals simultaneously using modified whole body plethysmography consisting of four small plexiglass boxes each connected to a reference box via Validyne DP 45-16 differential pressure transducers. The 4 boxes were equipped with an air supply line (also used for aerosol delivery) and an exhaust air line. Supply and exhaust lines were of the same length and narrow bore and arose from a common supply chamber and vented to a common exhaust chamber. This system was used to ensure that fluctuations in supply air and atmospheric pressure would remain in phase and be eliminated from the net signal by the differential pressure transducers. The analog pressure signals were digitalized via a Data Translation DT2821 A to D board. Data were collected at a rate of 100 samples/second/animal. Each cycle of pressure change was analyzed using the following parameters: rising and falling slope determined between minimum and maximum pressures, the ratio of rising over falling slope, and the magnitude of the change between initial trough pressure and peak cycle pressure. Using these values (and observing the animals) the pressure cycles were characterized into normal breaths, forced exhalations (apparent by abdominal heaving), significant respiratory events (SREs; usually coughs, less often sneezes or gasps which were characterized by transient, extremely large pressure increases which were distinguishable from noise) and movement/noise with a PCAT 286 running a System V UNIX operating system. Dyspnea was defined as a significant, sustained increase in plethysmograph pressure which was associated with an observable shift to labored breathing in the animal.
(§4) During the course of a typical experiment in which airway responsiveness to various bronchoconstricting agents was examined, aerosols were delivered for 19 min (0.33 ml/min) using a DeVilbiss Ultraneb 99 ultrasonic nebulizer and animals monitored during this time. Prior to nebulization, 1 min of resting breathing was collected to establish a baseline pressure. […] The vehicle for nebulization of all bronchoconstrictive agents was phosphate buffered saline (pH 7.4) which elicited no respiratory effects itself. Putative tachykinin antagonists were administered either (i.v.) 20 min prior to onset of aerosol exposure or orally 1 hour prior to onset (to guinea pigs after an overnight fast).
Capsaicin aerosol is known to promote release of the tachykinins SP and NKA from sensory nerves in the airways of guinea pigs which may then act upon NK1 and NK2 receptors, respectively to elicit respiratory effects.

The test system of assay [4] is NK2 receptor. Nature of the assay: Antagonism of NKA-induced respiratory effects in conscious guinea pigs. Format: in vivo, guinea pig. As to conditions: for dyspnea incidence: i.v. 20 min prior to NKA aerosol (0.05%). How it is done:
as §3, §4

Where a name gives a salt, the structure may show the parent alone.

T1 sequence (P25103 whole entry): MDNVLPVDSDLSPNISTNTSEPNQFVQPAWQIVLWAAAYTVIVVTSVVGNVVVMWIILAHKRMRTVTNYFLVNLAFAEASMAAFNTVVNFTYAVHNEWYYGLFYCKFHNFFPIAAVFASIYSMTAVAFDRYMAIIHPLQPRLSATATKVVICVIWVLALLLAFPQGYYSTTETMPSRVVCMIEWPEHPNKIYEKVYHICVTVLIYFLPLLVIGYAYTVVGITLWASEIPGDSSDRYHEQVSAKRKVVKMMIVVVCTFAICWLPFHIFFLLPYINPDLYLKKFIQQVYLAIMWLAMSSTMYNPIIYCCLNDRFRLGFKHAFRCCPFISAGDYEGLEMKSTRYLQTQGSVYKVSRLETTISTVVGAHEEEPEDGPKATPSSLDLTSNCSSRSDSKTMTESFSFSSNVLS

Usually ED50 stands for the dose that gives a 50% effect, or the effect in half of the subjects. In the case of `COc1cc(C(=O)N2CCC(CCN3CCC(C(N)=O)(c4ccccc4)CC3)(c3ccc(Cl)c(Cl)c3)C2)cc(OC)c1OC` (racemic) [Example 3A, 1-[2-[3-(3,4-dichloro-phenyl)-1-(3,4,5-trimethoxy-benzoyl)-pyrrolidin-3-yl]-ethyl]-4-phenyl-piperidine-4-carboxylic acid amide hydrochloride], the “relative antagonism of NK1 and NK2 receptors (in words)” value at NK1 receptor [1] was “antagonized both NK1 and NK2 receptors by nearly equivalent amounts”. The molecule further showed an NK-1 receptor slope on NK1 receptor [1] (UC11 cells, SP, Schild slope, mean (95% confidence limits)) of 0.90. At NK2 receptor [2], this molecule gave an NK-2 receptor slope of 0.73. Further, the 50% effective dose (ED50) on NK1 receptor [3] was found to be 0.17 mg/kg. The dyspnea incidence with NK1 and NK2 receptors (10 mg/kg, i.v. 20 min prior to capsaicin aerosol (0.001%)) was 89%; in the assay on NK1 and NK2 receptors (25 mg/kg, oral gavage 1 hr prior to capsaicin aerosol (0.001%)), 80%; in the assay with NK1 and NK2 receptors (50 mg/kg, oral gavage 1 hr prior to capsaicin aerosol (0.001%)), 70%; in the assay with NK1 and NK2 receptors (100 mg/kg, oral gavage 1 hr prior to capsaicin aerosol (0.001%)) it was 50%. Moreover, the “effect on capsaicin-induced respiratory effects (in words)” value is given as “attenuate capsaicin-induced respiratory effects” in the assay with NK1 and NK2 receptors (intravenous); “antagonize the effects of capsaicin aerosol when administered orally” with NK1 and NK2 receptors (oral).
With `COc1cccc(OC)c1C(=O)N1CCC(CCN2CCC(C(N)=O)(c3ccccc3)CC2)(c2ccc(Cl)c(Cl)c2)C1` (stereo not drawn) [Example 5A, 1-[2-[3-(3,4-dichloro-phenyl)-1-[2,6-dimethoxy-benzoyl)-pyrrolidin-3-yl]-ethyl]-4-phenylpiperidine-4-carboxylic acid amide hydrochloride], the “relative antagonism of NK1 and NK2 receptors (in words)” value at NK1 receptor [1] is “antagonized both NK1 and NK2 receptors by nearly equivalent amounts”. In addition, the dyspnea incidence was 60% in the assay with NK2 receptor [4] (5 mg/kg) and 54% in the assay with NK2 receptor [4] (10 mg/kg). In the assay with NK2 receptor [4] (NKA aerosol, dose dependent), the “effect on NKA-induced respiratory effects (in words)” value is given as “reduced the effects of NKA aerosol”.
As for `COc1cccc(OC)c1C(=O)N1CCC(CCN2CCC(C(N)=O)(c3ccccc3)CC2)(c2ccc(Cl)c(Cl)c2)C1` (stereo not drawn) [Example 5, 1-[2-[3-(3,4-dichloro-phenyl)-1-(2,6-dimethoxy-benzoyl)-pyrrolidin-3-yl]-ethyl]-4-phenyl-piperidine-4-carboxylic acid amide], the “effect on capsaicin-induced respiratory effects (in words)” value with NK1 and NK2 receptors (oral) is “antagonize the effects of capsaicin aerosol when administered orally”.
